We go through 78 molecules from the METLIN SMRT retention time set (Domingo-Almenara et al. 2019).

The data set can be described thus: gradient 5% acetonitrile 3 min, to 50% in 2 min, to 85% in 15 min, held 3 min, 100 µL/min. Particulars: column: Zorbax Extend-C18 2.1 x 50 mm; eluents: water / acetonitrile, 0.1% formic acid. In outline: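 Standards, all pure, were combined into mixtures of ~100 molecules and run at 100 μL/min on a Zorbax Extend-C18 column (2.1 × 50 mm, 1.8 μm) with water and acetonitrile, each containing 0.1% formic acid. A coupled quadrupole time-of-flight mass spectrometer operated in positive and negative ionization mode. Retention time values come from computationally picked adduct peaks, each inspected manually.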
With `CCc1cccc(C)c1NC(=O)Cn1cnc2nc(N3CCCC(C(=O)NC)C3)sc2c1=O` (stereo not drawn), the RP-LC retention time is 672 s.

Turning to `COCC(=O)N1CC2CN(S(=O)(=O)c3ccc(OC)cc3)CC(C1)O2`, the RP-LC retention time came out at 934 s.

As to `O=C(CC1CCCC1)N1CC(c2nc(-c3ccccc3)no2)C2(CCOCC2)C1` (stereo not drawn), the RP-LC retention time was found to be 923 s.

As for `CCOc1cc(CN2CCn3c(nn(CC4CC4)c3=O)C2)ccc1O`, the RP-LC retention time was 606 s.

As to `CCOc1ccccc1C(=O)N1CCN(S(=O)(=O)c2cc3c4c(c2)CCC(=O)N4CCC3)CC1`, the RP-LC retention time is 820 s.

`CCNC(=O)CCc1nc2ccccc2n(CC(=O)Nc2ccc(C(=O)OCC)cc2)c1=O` registered an RP-LC retention time of 764 s.

As to `O=S(=O)(c1cccc(C(F)(F)F)c1)N1CCN(c2ccc(-n3ccnc3)nn2)CC1`, the RP-LC retention time came to 601 s.

With `COc1ccccc1CNC(=O)C1CCN(c2ccc(SCc3ccccc3)nn2)CC1`, the RP-LC retention time was determined as 778 s.

`Cc1cccc(-c2noc(-c3cccnc3N3CCN(c4ccc5c(c4)OCO5)CC3)n2)c1` registered an RP-LC retention time of 766 s.

Regarding `Cc1ccc(NC(=O)C2(c3ccc4c(c3)OC(F)(F)O4)CC2)nc1-c1cccc(C(=O)O)c1`, the RP-LC retention time is 1130 s.

Molecule `CCN(C(=O)Cn1ccc2c(=O)n(C)c(=O)n(C)c21)c1cccc(Cl)c1` showed an RP-LC retention time of 747 s.

Molecule `COc1ccccc1NC(=O)N1C[C@@H](F)C[C@H]1C(=O)N1CCOCC1` displayed an RP-LC retention time of 625 s.

Consider `Cc1cccc(NC(=O)CC2COc3ccccc3NC2=O)c1C` (stereo not drawn), for which the RP-LC retention time came out at 736 s.

Regarding `COc1ccc(-c2noc(-c3nc(-c4ccccc4OC)no3)n2)cc1OC`, the RP-LC retention time was 1070 s.

`Cc1ccccc1-c1noc(Cn2c(=O)n(CC(C)C)c(=O)c3ccccc32)n1` registered an RP-LC retention time of 1220 s.

As for `O=C(NCc1ccco1)N1CCN(c2nc3ccccc3n(Cc3ccccc3)c2=O)CC1`, the RP-LC retention time was determined as 967 s.

For the molecule `Cc1cccc(NC(=O)Cn2nc3c(N(C)C4CCCCC4)nccn3c2=O)c1`, the RP-LC retention time amounted to 714 s.

Molecule `O=C(NCc1nc2ccccc2c(=O)n1-c1ccc(F)cc1)Nc1ccc(Cl)c(C(F)(F)F)c1` showed an RP-LC retention time of 1040 s.

Regarding `CCc1c(C(=O)O)nnn1Cc1ccccc1`, the RP-LC retention time was 701 s.

As for `O=C(CCC1CCCN(c2cc(NC3CC3)ncn2)C1)NCc1cccs1` (stereo not drawn), the RP-LC retention time turned out to be 640 s.

As for `Cc1ccc(CNC(=O)C2(C)CCCN(C(=O)Nc3ccc(C)cc3C)C2)cc1` (stereo not drawn), the RP-LC retention time was found to be 947 s.

Consider `CC(/C=C1\SC(=S)N(CC(=O)O)C1=O)=C\c1ccccc1`, for which the RP-LC retention time came to 1150 s.

`COc1ccc(S(=O)(=O)Cc2nc(-c3ccccc3Cl)no2)cc1` showed an RP-LC retention time of 966 s.

Turning to `CN(CCNC(=O)c1ccc2c(c1)N(S(C)(=O)=O)CC2)C1CCCCC1`, the RP-LC retention time came out at 610 s.

`CC(C)c1ccc(-c2c(N3CCN(c4ccccn4)CC3)c(=O)c2=O)cc1` showed an RP-LC retention time of 756 s.

Turning to `Cc1noc(-c2cc(=O)n(CC(=O)NCc3ccccc3)c3ccccc23)n1`, the RP-LC retention time was 812 s.

The molecule `O=C(Nc1cccc(OCc2nnc(-c3ccccc3)o2)c1)c1ccnc(Cl)c1` gave an RP-LC retention time of 926 s.

The molecule `CCc1ccc(NC(=O)Cn2ncc3c(c2=O)N(C2CC2)C(=O)CS3)cc1` yielded an RP-LC retention time of 797 s.

Consider `Nc1nc(Cl)nc2c1ncn2[C@@H]1O[C@H](CO)[C@@H](O)[C@H]1O`, for which the RP-LC retention time amounted to 590 s.

In turn, `CC1=NS(=O)(=O)N(Cc2ccccc2)C=C1C(=O)OCc1ccc(C(F)(F)F)cc1` returned an RP-LC retention time of 1190 s.

Molecule `COc1ccc2nc(C(=O)NCc3ccc(C)cc3)cn2n1` displayed an RP-LC retention time of 843 s.

`O=C(Nc1ccccc1C(F)(F)F)N1CCc2nc(-c3ccccc3)ncc2C1`: the RP-LC retention time is 948 s.

`COCCn1cc2c3c(cccc31)CN(C(=O)Nc1cc(Cl)ccc1OC)CC2` registered an RP-LC retention time of 1070 s.

Regarding `COc1cc(-c2nnc(-c3cccc(S(=O)(=O)N4CCCC4)c3)o2)cc(OC)c1OC`, the RP-LC retention time is 916 s.

Molecule `Cc1cc(OCC(=O)N2CCCC(C)C2)nc(-c2ccc(Cl)cc2)n1` (stereo not drawn) showed an RP-LC retention time of 1140 s.

The molecule `Cc1cc(N2CCN(C(=O)c3ccco3)CC2)nc(N2CCOCC2)n1` gave an RP-LC retention time of 566 s.

`COc1ccc(-c2nnc(N3CCC(C(=O)NCc4cc(F)cc(F)c4)CC3)o2)cc1` returned an RP-LC retention time of 899 s.

The molecule `COc1cc(C(=O)Nc2noc3ncccc23)cc(OC)c1OC` registered an RP-LC retention time of 620 s.

Molecule `Nc1c(Cl)ncnc1NCCO` yielded an RP-LC retention time of 557 s.

Consider `O=C(COc1ccccc1)N1CC(n2cnnc2C2CC2)C1`, for which the RP-LC retention time was found to be 620 s.

The molecule `Cc1ccc(C2CC(=O)c3cnc(Nc4nc(C)c5ccc(C)cc5n4)nc3C2)cc1` (stereo not drawn) gave an RP-LC retention time of 808 s.

`CCC1Oc2ccc(S(=O)(=O)N3CCC(C(=O)NCc4ccc(Cl)cc4)CC3)cc2NC1=O` (stereo not drawn) came in with an RP-LC retention time of 887 s.

Molecule `Cc1ccc2c(c1)N(C)N=C(C(=O)N1CCOCC1)S2(=O)=O` had an RP-LC retention time of 669 s.

For the molecule `Cc1noc(-c2cccc(OC3CN(C(=O)c4cccc5[nH]ccc45)C3)c2)n1`, the RP-LC retention time came out at 824 s.

`Cc1nn(C)c(C)c1S(=O)(=O)N1CCO[C@@H](COc2ccccn2)[C@@H]1c1ccccc1` had an RP-LC retention time of 850 s.

The molecule `CN(CCc1noc(-c2ccc(Cl)cc2)n1)C(=O)c1ccc(C#N)cc1` gave an RP-LC retention time of 908 s.

With `CC1=C(C(=O)Nc2cc3cn[nH]c3cc2F)C(c2ccc(C(F)(F)F)cc2)CC(=O)N1` (stereo not drawn), the RP-LC retention time turned out to be 734 s.

Molecule `Cc1cc(C)c2c(N3CCSCC3)nc(C(=O)N3CCN(c4ccccc4)CC3)nc2n1` displayed an RP-LC retention time of 722 s.

Molecule `COCCN1C(=O)CCC2(C(=O)NCc3ccc(Cl)cc3)CCCC=C12` (stereo not drawn) showed an RP-LC retention time of 787 s.

`COc1cc(-c2noc(Cc3nnc(-c4ccc(C)c(C)c4)o3)n2)cc(OC)c1OC` registered an RP-LC retention time of 1010 s.

For the molecule `Cc1nnc(-c2cc(S(=O)(=O)Nc3ccc(S(N)(=O)=O)cc3)c(C)n2C)o1`, the RP-LC retention time was found to be 649 s.

As for `O=C(CN1CCC(c2nc(-c3cccc(F)c3)no2)CC1)Nc1ccc2c(c1)OCO2`, the RP-LC retention time stood at 719 s.

Turning to `COc1ccc(Br)cc1S(=O)(=O)Nc1cc(-c2cn3ccccc3n2)ccc1C`, the RP-LC retention time was 701 s.

In the case of `O=C(NCCc1csc(-c2ccccc2)n1)[C@H]1CCCN1S(=O)(=O)c1cccc2nsnc12`, the RP-LC retention time was 888 s.

Regarding `COc1ccccc1-c1nc(Cn2nnc(-c3nc(-c4ccc(SC)cc4)no3)c2C)c(C)o1`, the RP-LC retention time amounted to 1180 s.

As for `CN(C)C(=O)C1CCc2nc(N3CCN(C(=O)C4CCC4)CC3)sc2C1` (stereo not drawn), the RP-LC retention time stood at 590 s.

On to `Cc1ccc(CNC(=O)Nc2ccc3nnc(C)n3c2)cc1`, for which the RP-LC retention time was found to be 661 s.

In the case of `O=C(Cn1c(=O)cc(-c2nc(C3CC3)no2)c2ccccc21)NCc1ccc2c(c1)OCO2`, the RP-LC retention time was 906 s.

In the case of `CCOc1ccc(NC(=O)Cn2cccc2-c2nnc(C3CC3)o2)cc1`, the RP-LC retention time worked out at 847 s.

As to `CN1CCCc2cc(CCNC(=O)C(=O)NCCC3=CCCCC3)ccc21`, the RP-LC retention time worked out at 842 s.

Consider `Cn1c(=O)n(CC(=O)O)c(=O)c2c1nc1n2CCN1c1ccc(Cl)cc1`, for which the RP-LC retention time worked out at 748 s.

The molecule `CC1CCN(c2nc(C(=O)N3CCN(c4ccccc4)CC3)nc3c2cnn3C)CC1` displayed an RP-LC retention time of 956 s.

For `O=C(CSc1nnc2scc(-c3ccc(Cl)cc3)n12)Nc1ccccc1F`, the RP-LC retention time was 839 s.

`COCc1nc2cccnc2n1C1CCN(C(=O)Nc2cc(OC)cc(OC)c2)CC1` came in with an RP-LC retention time of 696 s.

The molecule `Cn1c(=O)c(NCCCN2CCCc3ccccc32)nc2ccncc21` had an RP-LC retention time of 665 s.

Take `O=C(Nc1nnc(C2CC(=O)N(c3ccc(F)cc3)C2)o1)c1cccc(F)c1` (stereo not drawn): the RP-LC retention time was determined as 730 s.

For `COc1nc2ccccc2nc1N1CCCC(C(=O)Nc2cc(F)cc(F)c2)C1` (stereo not drawn), the RP-LC retention time was found to be 1170 s.

`CC(C)n1nc(CNC(=O)Cc2ccsc2)c2ccccc21` registered an RP-LC retention time of 850 s.

For `Cc1cc(C)c(C#N)c(SCC(=O)N2CCOCC2)n1`, the RP-LC retention time amounted to 721 s.

`CCCNc1cc(N2CCC(CCC(=O)N3CCN(c4ncccn4)CC3)CC2)ncn1` yielded an RP-LC retention time of 632 s.

As to `CCOC(=O)C1CCCN(C(=O)CCC2NC(=O)c3ccccc3NC2=O)C1` (stereo not drawn), the RP-LC retention time turned out to be 621 s.

For `O=C(Cc1ccc(F)cc1)Nc1ccc(-c2cn3c(C(=O)N4CCCC4)csc3n2)cc1`, the RP-LC retention time stood at 783 s.

Molecule `O=C(Nc1ccc(Cl)cc1)C1CCc2nc(N3CCOCC3)ncc2C1` (stereo not drawn) showed an RP-LC retention time of 757 s.

Take `O=C(NCc1ccc(F)c(Cl)c1)C1CCCN(c2ncnc3c2oc2ccccc23)C1` (stereo not drawn): the RP-LC retention time came to 818 s.

For `O=C(NC1CCCc2c1[nH]c1ccc(F)cc21)c1ccncc1` (stereo not drawn), the RP-LC retention time stood at 774 s.

Molecule `O=C(NCCc1c[nH]c2ccccc12)C1CCN(c2ccncc2)CC1` displayed an RP-LC retention time of 610 s.

For the molecule `CCc1ccc(NC(=O)N2CCC(n3cnc4ccc(Cl)cc4c3=O)CC2)cc1`, the RP-LC retention time was 921 s.

Molecule `Cc1nnc(-c2ccc3ccn(CC(=O)N4CCCc5ccccc54)c3c2)o1` displayed an RP-LC retention time of 814 s.
